Data set [1] in a line: Cytotoxicity against Homo sapiens (human) CEM174 by MTT assay. Particulars: CEM174 cells, read-out: TC50 (the source's name). A general note: Tetrazolium dyes change colour on reduction, which living cells bring about; call rule not given here.
Data set [2] has as its target Structural capsid protein (Human immunodeficiency virus 1) (UniProt Q76129). The data set is described as follows: Inhibition of Human immunodeficiency virus 1 capsid protein expressed in Escherichia coli BL21(DE3) assessed as capsid assembly rate measured every 5 secs by spectrofluorometric analysis (reference value: 51.88 x 10^-5 OD/s).
A short description of data set [3]: Toxicity index, ratio of TC50 for human CEM174 cells to EC50 for Simian immunodeficiency virus. In kind it is cell-based. The note with it: read-out: TI.
Data set [4] has as its system Simian immunodeficiency virus. The data set is described as follows: Antiviral activity against Simian immunodeficiency virus infected CEM174 cells assessed as inhibition of virus-induced syncytium after 5 days by microscopic analysis. Format: functional, organism-based. The note with it: CEM174, 120 h.
The target in data set [5] is T1, Peptidyl-prolyl cis-trans isomerase A (Homo sapiens, UniProt P62937). The data set is described as follows: Inhibition of Homo sapiens (human) cyclophilin A PPIase activity expressed in Escherichia coli BL21(DE3) using Suc-AAPF-pNA as substrate measured after 6 secs for 20 secs by spectrophotometric analysis.
Data set [6] addresses T1, Peptidyl-prolyl cis-trans isomerase A. Put plainly: Binding affinity to Homo sapiens (human) cyclophilin A expressed in Escherichia coli BL21(DE3) by fluorescence titration assay.

T1 sequence (P62937 whole entry): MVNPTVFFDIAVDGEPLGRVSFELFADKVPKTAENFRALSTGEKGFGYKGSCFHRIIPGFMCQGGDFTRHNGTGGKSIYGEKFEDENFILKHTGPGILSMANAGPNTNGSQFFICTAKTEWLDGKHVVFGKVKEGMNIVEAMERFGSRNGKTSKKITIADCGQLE
Structural capsid protein (Human immunodeficiency virus 1), sequence (Q76129 as listed by the source): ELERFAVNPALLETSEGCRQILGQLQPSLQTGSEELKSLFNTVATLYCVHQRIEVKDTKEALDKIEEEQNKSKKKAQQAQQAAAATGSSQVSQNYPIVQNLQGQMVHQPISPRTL

Usually EC50 stands for the midpoint of the concentration-response curve. With `Cc1ccc(NS(=O)(=O)c2ccc(NC(=S)Nc3ccc(Cl)cc3)cc2)cc1`, the CC50 in data set [1] was 77.5 µM. Also, the Activity in data set [2] was 13.3 ×10⁻⁵ OD/s. Also, the selectivity ratio in data set [3] worked out at 19. The EC50 in data set [4] was determined as 4.1 µM.

Usually IC50 stands for the concentration that inhibits the measured activity by half. On to `COc1ccc(NC(=S)Nc2ccc3c(c2)C(=O)OC3)cc1`, for which, in data set [5] (read-out: IC50), the IC50 was found to be 0.92 µM. For the same molecule, in data set [3], the selectivity ratio is 20. The EC50 in data set [4] stood at 9.7 µM.

`Cc1ccc(NC(=O)NCCSCc2ccc(CN(C)C)o2)cc1Cl`: the Activity in data set [2] was found to be 26.5 ×10⁻⁵ OD/s.

Usually Kd stands for the concentration at which binding is half-saturated. High values mean weaker binding, low ones tighter binding. Consider `CCN(CC)c1nc(C)c([N+](=O)[O-])c(NC(=S)Nc2cccc(Br)c2)n1`, for which, in data set [1], the CC50 turned out to be 26.2 µM. This molecule registered a Kd in data set [6] of 79.3 µM. The half-inhibitory concentration (IC50) in data set [5] (read-out: IC50) stood at 0.81 µM. The selectivity ratio in data set [3] is 3.5. In addition, in data set [4], the EC50 is 7.4 µM.

Regarding `COc1ccc(NC(=S)Nc2ccc(S(=O)(=O)Nc3cc(C)on3)cc2)cc1`, the Activity in data set [2] worked out at 20.2 ×10⁻⁵ OD/s. Further, the selectivity ratio in data set [3] worked out at 27. Moreover, in data set [4], the EC50 worked out at 1.5 µM.

Take `O=C1OCc2ccc(NC(=S)Nc3cccc(F)c3)cc21`: in data set [5] (read-out: IC50), the IC50 was 0.74 µM. For the same molecule, the selectivity ratio in data set [3] worked out at 10. Also, the EC50 in data set [4] came out at 6.3 µM.

As for `Cc1ccc(NC(=S)Nc2ccc3c(c2)C(=O)OC3)cc1Cl`, the Activity in data set [2] was determined as 9.9 ×10⁻⁵ OD/s. Also, the selectivity ratio in data set [3] was found to be 4. In data set [4], the EC50 stood at 4.6 µM.

As for `Cc1cc(NS(=O)(=O)c2ccc(NC(=S)Nc3cccc(F)c3)cc2)no1`, the Activity in data set [2] was 38.5 ×10⁻⁵ OD/s. Moreover, the IC50 in data set [5] (read-out: IC50) is 0.88 µM. For the same molecule, the selectivity ratio in data set [3] was determined as 8. For the same molecule, in data set [4], the concentration for a half-maximal effect (EC50) was 11.6 µM.

For the molecule `O=C1OCc2ccc(NC(=S)Nc3ccccc3)cc21`, in data set [1], the CC50 is 36.3 µM. Further, the Activity in data set [2] stood at 25.5 ×10⁻⁵ OD/s. Besides, the selectivity ratio in data set [3] is 28. In addition, the EC50 in data set [4] was found to be 1.3 µM.

On to `Cc1cc(NS(=O)(=O)c2ccc(NC(=S)Nc3ccccc3C)cc2)no1`, for which the selectivity ratio in data set [3] was 8. The EC50 in data set [4] came out at 6.2 µM.

As for `Cc1cc(NS(=O)(=O)c2ccc(NC(=S)Nc3ccc(Cl)cc3)cc2)no1`, in data set [2], the Activity amounted to 14.7 ×10⁻⁵ OD/s. The selectivity ratio in data set [3] was found to be 9. The 50% effective concentration (EC50) in data set [4] is 4.1 µM.

For `Cc1cc(NS(=O)(=O)c2ccc(NC(=S)Nc3cccc(Cl)c3)cc2)no1`, the Activity in data set [2] came out at 7.97 ×10⁻⁵ OD/s. In addition, the selectivity ratio in data set [3] was found to be 92. Moreover, the EC50 in data set [4] came out at 1 µM.

On to `Cc1cc(NS(=O)(=O)c2ccc(NC(=S)Nc3cccc(Br)c3)cc2)no1`, for which the Activity in data set [2] was determined as 15.8 ×10⁻⁵ OD/s. In data set [3], the selectivity ratio is 66. Moreover, the EC50 in data set [4] came out at 0.9 µM.

For `CCN(CC)c1nc(C)c([N+](=O)[O-])c(NC(=S)Nc2ccc(C)c(Cl)c2)n1`, the CC50 in data set [1] was above 100 µM. In data set [6], the Kd came to 73.3 µM. Further, in data set [5] (read-out: IC50), the IC50 was determined as 0.74 µM. Further, the selectivity ratio in data set [3] is above 14.1. In addition, in data set [4], the EC50 was 6.3 µM.

For the molecule `CCN(CC)c1nc(C)cc(NC(=S)Nc2cccc(Br)c2)n1`, the CC50 in data set [1] turned out to be 8.4 µM. This molecule also returned a Kd in data set [6] of 200 µM. Further, in data set [5], the IC50 result is “Not Active”. In data set [3], the selectivity ratio was above 1.5. In addition, the EC50 in data set [4] was 5.5 µM.

`Cc1cccc(NC(=S)Nc2ccc3c(c2)C(=O)OC3)c1`: the Activity in data set [2] stood at 32.7 ×10⁻⁵ OD/s. The IC50 result in data set [5] is given as “Not Active”. The selectivity ratio in data set [3] came out at 1. Besides, the EC50 in data set [4] came to 11.6 µM.

`CCN(CC)c1nc(C)c([N+](=O)[O-])c(NC(=S)Nc2cccc(F)c2)n1`: the CC50 in data set [1] is above 100 µM. Besides, in data set [2], the Activity amounted to 20.7 ×10⁻⁵ OD/s. Moreover, the selectivity ratio in data set [3] is above 26.3. Also, in data set [4], the EC50 turned out to be 3.8 µM.

Consider `Cc1cc(NS(=O)(=O)c2ccc(NC(=S)Nc3ccc(C)c(Cl)c3)cc2)no1`, for which the Activity in data set [2] was determined as 18.4 ×10⁻⁵ OD/s. Further, in data set [3], the selectivity ratio amounted to 127. For the same molecule, the EC50 in data set [4] was 0.6 µM.

Regarding `CCN(CC)c1nc(C)c([N+](=O)[O-])c(NC(=S)Nc2ccc(Cl)cc2)n1`, in data set [1], the CC50 is above 100 µM. Also, the Activity in data set [2] is 48.9 ×10⁻⁵ OD/s. The selectivity ratio in data set [3] is above 8.33. In data set [4], the EC50 was found to be 12 µM.

Take `CCN(CC)c1nc(C)c([N+](=O)[O-])c(NC(=S)Nc2cccc(Cl)c2)n1`: the CC50 in data set [1] was 31.5 µM. In addition, the Activity in data set [2] was determined as 21.2 ×10⁻⁵ OD/s. The selectivity ratio in data set [3] was 8.6. The EC50 in data set [4] worked out at 3.7 µM.

As to `O=S(=O)(Nc1nccs1)c1ccc(NC(=S)Nc2ccc(Cl)cc2)cc1`, the selectivity ratio in data set [3] is 3. The EC50 in data set [4] was determined as 0.7 µM.

The values above are taken from ChEMBL document CHEMBL3046110, “Screening and evaluation of thiourea derivatives for their HIV capsid and human cyclophilin A inhibitory activity” (Med Chem Res, 2011).
